Read-outs that look alike come from different tables or passages of the source.
Legend:
[1] = biological target: T1, α4β2 nAChR (Rattus norvegicus, UniProt P09483+P12390); test: [3H]-epibatidine radioligand competition binding assay
T1 construct: expressed in transfected cells
Method: (§1) Stably transfected cell lines, tissue culture conditions, membrane preparation procedures and binding assays were described previously. Briefly, cultured cells at >80% confluence were removed from their flasks (80 cm^2) with a disposable cell scraper and placed in 10 mL of 50 mM Tris.HCl buffer (pH 7.4, 4° C.). The cell suspension was centrifuged at 10,000×g for 5 min and the pellet was collected. The cell pellet was then homogenized in 10 mL buffer with a polytron homogenizer and centrifuged at 36,000 g for 10 min at 4° C. The membrane pellet was resuspended in fresh buffer, and aliquots of the membrane preparation were used for binding assays. The concentration of [^3H]-epibatidine used was ˜500 pM for competition binding assays. […] Bound and free ligands were separated by vacuum filtration through Whatman GF/C filters treated with 0.5% polyethylenimine. The filter-retained radioactivity was measured by liquid scintillation counting. Specific binding was defined as the difference between total binding and nonspecific binding. Data from competition binding assays were analyzed using Prism 5 (GraphPad Software, San Diego, Calif.).
(§2) The in vitro binding affinities of the new ligands were measured for defined receptor subtypes (α2β2, α2β4, α3β2, α3β4, α4β2, α4β4, α6β2, α6β4, and α7) expressed in stably transfected cell lines. [^3H]Epibatidine ([^3H]EB) binds to the agonist recognition site of all of the defined receptor subtypes with high affinities. Rat forebrain homogenates were included to allow comparison between the heterologous and native α4β2 and α7 nAChRs. See FIG. 18 for binding affinity values (Ki) of the ligands at the three major nAChR subtypes (α3β4, […], and α7).
(§3) The binding affinities of all compounds synthesized for the receptor subtypes were examined in binding competition studies against [^3H]-epibatidine.

[2] = biological target: T2, α3β4 nAChR (Rattus norvegicus, UniProt P04757+P12392); test: as above
T2 construct: expressed in transfected cells; host or cells: HEK 293 (KXα3β4R2)
Method: as §1, §2, §3

[3] = biological target: T3, α7 nAChR (Rattus norvegicus, UniProt Q05941); test: as above; settings: competition against [3H]-epibatidine
T3 construct: expressed in transfected cells
Method: as §1, §2, §3

[4] = biological target: T4, human α4β2 nAChRs (Homo sapiens, UniProt P17787+P43681); test: 86Rb+ efflux assay in stably transfected cells; type: cell-based; settings: for IC50: 10 min pre-treatment before 100 μM (−)-nicotine, read-out: IC50(10′) α4β2 (desensitization potency)
T4 construct: expressed in transfected cells
Method: (§4) The cell line expressing rat α3β4 nAChRs, KXα3β4R2, was established previously by stably transfecting HEK 293 cells with combinations of rat nAChR α3 and β4 subunit genes. The cell line expressing human α4β2 nAChRs, YXα4β2H1, were established recently (Tuan et al., 2012, manuscript in preparation). These cell lines were maintained in minimum essential medium (MEM) supplemented with 10% fetal bovine serum, 100 units/mL penicillin G, […] streptomycin and selective antibiotics at 37° C. with 5% CO2 in a humidified incubator. Tissue culture medium and antibiotics were obtained from Invitrogen Corporation (Carlsbad, Calif.), unless otherwise stated. Fetal bovine serum and horse serum were provided by Gemini Bio-Products (Woodland, Calif.).
(§5) Functional properties of compounds at nAChRs expressed in the transfected cells were measured using ^86Rb^+ efflux assays as described previously. In brief, cells were plated into 24-well plates coated with poly-D-lysine. The plated cells were grown at 37° C. for 18 to 24 hour to reach 85-95% confluence. The cells were then incubated in growth medium (0.5 mL/well) containing ^86Rb^+ (2 μCi/mL) for 4 hour at 37° C. The loading mixture was then aspirated, and the cells were washed four times with 1 mL buffer (15 mM HEPES, 140 mM NaCl, 2 mM KCl, 1 mM MgSO4, 1.8 mM CaCl2, 11 mM Glucose, pH 7.4). One mL of buffer with or without compounds to be tested was then added to each well. After incubation for 2 min, the assay buffer was collected for measurements of ^86Rb^+ released from the cells. Cells were then lysed by adding 1 mL of 100 mM NaOH to each well, and the lysate was collected for determination of the amount of ^86Rb^+ that was in the cells at the end of the efflux assay. Radioactivity of assay samples and lysates was measured by liquid scintillation counting. Total loading (cpm) was calculated as the sum of the assay sample and the lysate of each well. The amount of ^86Rb^+ efflux was expressed as a percentage of ^86Rb^+ loaded. […] For obtaining EC50 and Emax values, stimulation curves were constructed in which 8 different concentrations of a ligand were included in the assay. […] EC50, Emax and IC50(10′) values were determined by nonlinear least-squares regression analyses (GraphPad, San Diego, Calif.).
(§6) Functional properties of the new ligands were determined by ^86Rb^1 efflux assays in cells expressing α3β4 and α4β2 nAChR subtypes. Functional activity of each new ligand was measured in terms of its agonism, antagonism and desensitization ability.
(§7) Agonist activity of each of the ligands was tested at eight concentrations. […] The full concentration-effect curves generated potency (EC50) and efficacy (Emax) of each ligand.
(§8) Though the ^86Rb^+ efflux assays were the main methodology used to determine functional properties, whole-cell current measurements were also used to verify the key experiments.

[5] = biological target: T5, rat α3β4 nAChRs (Rattus norvegicus, UniProt P04757+P12392); test: 86Rb+ efflux assay in stably transfected cells; type: cell-based; settings: for IC50: 10 min pre-treatment before 100 μM (−)-nicotine, read-out: IC50(10′) α3β4 (desensitization potency); for agonist activity at α3β4 nAChRs: 86Rb+ efflux, rat α3β4
T5 construct: expressed in transfected cells; host or cells: HEK 293 (KXα3β4R2)
Method: as §4, §5, §6, §7, §8

[6] = human, in vivo; cited from earlier work
[7] = tested on: nicotine self-administration; settings: subcutaneous, previous studies; cited from earlier work
[8] = competition against [3H]-epibatidine, stably transfected cell membranes, read-out: Ki α3β4
[9] = competition against [3H]-epibatidine, stably transfected cell membranes, read-out: Ki α4β2
[10] = preincubated with the cells for 10 min

With Cc1cccc(C#Cc2cncc(OC[C@@H]3CCN3)c2)c1 [VMY-2-123, (S)-3-(azetidin-2-ylmethoxy)-5-(m-tolylethynyl)pyridine] the Ki [1] was 0.046 nM, the “selectivity for α4β2 receptors over α3β4 receptors (Ki ratio)” value [1] was 87,000 times and the Ki [2, 8] was 4 µM. It also gave a Ki [3] of 0.2 µM.
With CCCNCCOc1cncc(C#Cc2ccccc2)c1 [VMY-2-177, N-(2-(5-(phenylethynyl)pyridin-3-yloxy)ethyl)propan-1-amine] the Ki [1, 9] was 1100 nM, the Ki [2, 8] was 850 µM and the Ki [3] was 48 µM. The IC50 [4] was 15 µM and the IC50 [5] was 12 µM.
For C(#Cc1cncc(OC[C@H]2CCN2)c1)c1ccccc1 [VMY-2-191, (R)-3-(azetidin-2-ylmethoxy)-5-(phenylethynyl)pyridine], the Ki [1, 9] was 0.11 nM, the Ki [2, 8] was 1.7 µM and the Ki [3] was 1.6 µM.
Fc1ccc(C#Cc2cncc(OC[C@@H]3CCN3)c2)cc1 [VMY-2-101, (S)-3-(azetidin-2-ylmethoxy)-5-((4-fluorophenyl)ethynyl)pyridine] showed a Ki [1] of 0.083 nM, a Ki [2, 8] of 0.65 µM and a Ki [3] of 2 µM. For the same compound, the IC50 [4] was 0.008 µM.
For CN1CC[C@H]1COc1cncc(C#Cc2ccccc2)c1 [VMY-2-205, (S)-3-((1-methylazetidin-2-yl)methoxy)-5-(phenylethynyl)pyridine], the Ki [1] was 1.2 nM, the “binding weaker than VMY-2-95 (fold)” value ([1]; α4β2 binding affinity relative to (S)-N-H VMY-2-95) was roughly 25 times and the Ki [2, 8] was 40 µM. For the same compound, the Ki [3] was 7.7 µM, the IC50 [4] was 0.37 µM and the IC50 [5] was 22 µM.
Clc1cccc(C#Cc2cncc(OC[C@@H]3CCN3)c2)c1 [VMY-2-127, (S)-3-(azetidin-2-ylmethoxy)-5-((3-chlorophenyl)ethynyl)pyridine] showed a Ki [1] of 0.093 nM, a Ki [2, 8] of 3.4 µM and a Ki [3] of 0.48 µM.
For CN(C)c1cc(F)cc(C#Cc2cncc(OC[C@@H]3CCN3)c2)c1 [VMY-2-131, (S)-3-((5-(azetidin-2-ylmethoxy)pyridin-3-yl)ethynyl)-5-fluoro-N,N-dimethylaniline], the Ki [1] was 0.031 nM, the Ki [2, 8] was 1 µM and the Ki [3] was 0.25 µM.
In the case of CN1CCCC1c1cccnc1 (centres unmarked) [nicotine, reference compound], the “inhibition of nicotine activation of α4β2 receptors” value (from here on “inhibition”) [4] is reported as “inhibited”.
Fc1cc(F)cc(C#Cc2cncc(OC[C@@H]3CCN3)c2)c1 [VMY-2-113, (S)-3-(azetidin-2-ylmethoxy)-5-((3,5-difluorophenyl)ethynyl)pyridine] gave a Ki [1] of 0.05 nM, a Ki [2] of 1.4 µM and a Ki [3] of 1.8 µM.
Work on C(#Cc1cncc(OCC2CCC2)c1)c1ccccc1 [VMY-2-161, 3-(cyclobutylmethoxy)-5-(phenylethynyl)pyridine] yielded a Ki [1, 9] of 160000 nM, a Ki [2, 8] of 1300 µM and a Ki [3] of 410 µM. It also gave an IC50 [4] of 35 µM and an IC50 [5] greater than 100 µM.
In the case of Fc1ccccc1C#Cc1cncc(OC[C@@H]2CCN2)c1 [VMY-2-105, (S)-3-(azetidin-2-ylmethoxy)-5-((2-fluorophenyl)ethynyl)pyridine], the Ki [1] is reported as 0.072 nM, the Ki [2, 8] is reported as 0.58 µM and the Ki [3] is reported as 1.1 µM. The IC50 [4] was 0.02 µM.
For c1cnc2cc3c(cc2n1)[C@@H]1CNC[C@H]3C1 [varenicline, reference compound], the “participants in clinical trials who reported nausea” value [6] is listed as roughly 30%, the “participants in clinical trials who reported vomiting” value [6] is listed as 18% and the “percentage of subjects who remained smoke-free for 12 months following treatment” value [6] is listed as roughly 22%. For the same compound, the “agonist activity at α4β2 receptors” value ([4]; 86Rb+ efflux, human α4β2) was “partial agonist activity”, the “inhibition” value [4, 10] was “inhibited” and the “agonist activity at α3β4 nAChRs” value [5] was “near-full agonist activity”.
For FC(F)(F)c1cccc(C#Cc2cncc(OC[C@@H]3CCN3)c2)c1 [VMY-2-117, (S)-3-(azetidin-2-ylmethoxy)-5-((3-(trifluoromethyl)phenyl)ethynyl)pyridine], the Ki [1] was 0.26 nM, the “selectivity for α4β2 receptors over α3β4 receptors (Ki ratio)” value [1] was 5,400 times and the Ki [2, 8] was 1.4 µM. For the same compound, the Ki [3] was 1.3 µM.
For COc1cc(F)cc(C#Cc2cncc(OC[C@@H]3CCN3)c2)c1 [VMY-2-139, (S)-3-(azetidin-2-ylmethoxy)-5-((3-fluoro-5-methoxyphenyl)ethynyl)pyridine], the Ki [1] was 0.076 nM, the Ki [2, 8] was 1.3 µM and the Ki [3] was 1.5 µM.
Compound Fc1cccc(C#Cc2cncc(OC[C@@H]3CCN3)c2)c1 [VMY-2-109, (S)-3-(azetidin-2-ylmethoxy)-5-((3-fluorophenyl)ethynyl)pyridine] has a Ki [1] of 0.032 nM, a Ki [2, 8] of 0.52 µM and a Ki [3] of 0.72 µM. The IC50 [4] was 0.013 µM.
OCCCCC#Cc1cncc(OC[C@@H]2CCN2)c1 [Sazetidine-A, reference compound] showed a Ki [1, 9] of 0.062 nM, a Ki [2, 8] of 1.9 µM and a Ki [3] of 1.6 µM. The IC50 ([4]; listed as Saz-A) was 0.012 µM, the IC50 [4] was 0.0075 µM and the “inhibition” value [4, 10] was “inhibited”. The “agonist activity at α3β4 nAChRs” value [5] was “does not show agonist activity”, the IC50 [5] was greater than 10 µM and the “effect on the function of rat α3β4 nAChRs” value ([5]; concentrations up to 10 μM) was “had no effect”. For the same compound, the “lowest effective dose reducing nicotine self-administration” value [7] was 3 mg/kg.
Cc1cc(F)cc(C#Cc2cncc(OC[C@@H]3CCN3)c2)c1 [VMY-2-135, (S)-3-(azetidin-2-ylmethoxy)-5-((3-fluoro-5-methylphenyl)ethynyl)pyridine] gave a Ki [1] of 0.043 nM, a Ki [2, 8] of 1.1 µM and a Ki [3] of 0.59 µM.
